{
  "source": "ChEMBL document CHEMBL1149871",
  "about": "“Structure and conformational dynamics of trichothecene mycotoxins” (J Nat Prod, 2008)",
  "key": {"[1]": {"experiment": "Toxicity in mouse CD4+ T cells assessed as induction of IL5 at 1000 ng/ml", "type": "cell-based", "conditions": "t-cell"}, "Mus musculus": {"system": "Mus musculus", "experiment": "Toxicity in ip dosed mouse relative to roridin A", "type": "organism-based", "conditions": "in vivo"}, "[2]": {"experiment": "Toxicity in mouse CD4+ T cells assessed as induction of IL5 at 1.0 ng/ml", "type": "cell-based", "conditions": "t-cell"}, "K562": {"system": "K562", "experiment": "Cytotoxicity against human K562 cells by MTT assay", "type": "functional, cell-based"}, "[3]": {"experiment": "Toxicity in ip dosed mouse", "type": "organism-based", "conditions": "in vivo"}, "[4]": {"experiment": "Toxicity in mouse CD4+ T cells assessed as induction of IL5 at 100 ng/ml", "type": "cell-based", "conditions": "t-cell"}, "[5]": {"experiment": "Toxicity in mouse CD4+ T cells assessed as induction of IL5 at 500 ng/ml", "type": "cell-based", "conditions": "t-cell"}, "[6]": {"experiment": "Toxicity in mouse CD4+ T cells assessed as induction of IL5 at 0.05 ng/ml", "type": "cell-based", "conditions": "t-cell"}},
  "data": [
    {"smiles": "CC(=O)O[C@@H]1C[C@]2(C)[C@@]3(CO)[C@H](O)C(=O)C(C)=C[C@H]3O[C@H]1[C@@]21CO1", "note": "[3-ACETYLDEOXYNIVALENOL]", "values": [
      {"measurement": "Activity", "setting": "[1]", "result": "Toxic"}
    ]},
    {"smiles": "CC(=O)OC[C@]12C[C@H](OC(=O)CC(C)C)C(C)=C[C@H]1O[C@@H]1[C@H](O)[C@@H](OC(C)=O)[C@@]2(C)[C@]12CO2", "note": "[T-2 TOXIN]", "values": [
      {"measurement": "Activity", "setting": "Mus musculus", "result": 3},
      {"measurement": "Activity", "setting": "[2]", "result": "Toxic"},
      {"measurement": "EC50", "setting": "K562", "result": 2.1, "unit": "nM"}
    ]},
    {"smiles": "CC1=C[C@H]2O[C@@H]3[C@H](O)[C@@H](O)[C@](C)([C@@]2(CO)[C@H](O)C1=O)[C@]31CO1", "note": "[NIVALENOL]", "values": [
      {"measurement": "LD50", "setting": "[3]", "result": 4.1, "unit": "mg/kg"},
      {"measurement": "EC50", "setting": "K562", "result": 960, "unit": "nM"},
      {"measurement": "Activity", "setting": "[4]", "result": "Toxic"}
    ]},
    {"smiles": "CC1=C[C@H]2O[C@@H]3[C@H](O)C[C@](C)([C@@]2(CO)[C@H](O)C1=O)[C@]31CO1", "note": "[DEOXYNIVALENOL]", "values": [
      {"measurement": "Activity", "setting": "Mus musculus", "result": 4},
      {"measurement": "LD50", "setting": "[3]", "result": 70, "unit": "mg/kg"},
      {"measurement": "EC50", "setting": "K562", "result": 1010, "unit": "nM"},
      {"measurement": "Activity", "setting": "[4]", "result": "Toxic"}
    ]},
    {"smiles": "CC(=O)OC[C@]12CCC(C)=C[C@H]1O[C@@H]1[C@H](O)[C@@H](OC(C)=O)[C@@]2(C)[C@]12CO2", "note": "[ANGUIDIN]", "values": [
      {"measurement": "Activity", "setting": "Mus musculus", "result": 23},
      {"measurement": "EC50", "setting": "K562", "result": 2.7, "unit": "nM"}
    ]},
    {"smiles": "CC1=C[C@H]2O[C@@H]3C[C@@H]4OC(=O)/C=C/C=C/COCC/C([C@@H](O)[C@H](C)O)=C/C(=O)OC[C@@]2(CC1)[C@]4(C)[C@]31CO1", "note": "[SATRATOXIN H]", "values": [
      {"measurement": "Activity", "setting": "Mus musculus", "result": 1}
    ]},
    {"smiles": "CC(=O)OC[C@]12[C@H](O)C(=O)C(C)=C[C@H]1O[C@@H]1[C@H](O)C[C@@]2(C)[C@]12CO2", "note": "[15-ACETYLDEOXYNIVALENOL]", "values": [
      {"measurement": "Activity", "setting": "[5]", "result": "Toxic"}
    ]},
    {"smiles": "CC(=O)OC[C@]12C[C@H](O)C(C)=C[C@H]1O[C@@H]1[C@H](O)[C@@H](OC(C)=O)[C@@]2(C)[C@]12CO2", "note": "[NEOSOLANIOL]", "values": [
      {"measurement": "Activity", "setting": "Mus musculus", "result": 0.5},
      {"measurement": "EC50", "setting": "K562", "result": 392, "unit": "nM"}
    ]},
    {"smiles": "CC(=O)OC[C@]12C[C@H](OC(=O)CC(C)C)C(C)=C[C@H]1O[C@@H]1[C@H](O)[C@@H](O)[C@@]2(C)[C@]12CO2", "note": "[HT-2 TOXIN]", "values": [
      {"measurement": "Activity", "setting": "Mus musculus", "result": 9},
      {"measurement": "EC50", "setting": "K562", "result": 47.1, "unit": "nM"}
    ]},
    {"smiles": "CC1=C[C@H]2O[C@@H]3C[C@H]4OC(=O)/C=C\\C=C\\C(=O)OCC[C@@H](C)[C@H](O)C(=O)OC[C@@]2(CC1)[C@]4(C)[C@]31CO1", "note": "[VERRUCARIN A]", "values": [
      {"measurement": "Activity", "setting": "Mus musculus", "result": 1.5},
      {"measurement": "Activity", "setting": "[6]", "result": "Toxic"}
    ]}
  ]
}
